Data published in US8168667B2 (Galapagos NV, priority 2006, dated 2012).
Like-named read-outs stand apart in the source and are kept apart here.

Biological target: T1, human androgen receptor (hAR) (Homo sapiens, UniProt P10275)
T1 sequence (P10275 1-920): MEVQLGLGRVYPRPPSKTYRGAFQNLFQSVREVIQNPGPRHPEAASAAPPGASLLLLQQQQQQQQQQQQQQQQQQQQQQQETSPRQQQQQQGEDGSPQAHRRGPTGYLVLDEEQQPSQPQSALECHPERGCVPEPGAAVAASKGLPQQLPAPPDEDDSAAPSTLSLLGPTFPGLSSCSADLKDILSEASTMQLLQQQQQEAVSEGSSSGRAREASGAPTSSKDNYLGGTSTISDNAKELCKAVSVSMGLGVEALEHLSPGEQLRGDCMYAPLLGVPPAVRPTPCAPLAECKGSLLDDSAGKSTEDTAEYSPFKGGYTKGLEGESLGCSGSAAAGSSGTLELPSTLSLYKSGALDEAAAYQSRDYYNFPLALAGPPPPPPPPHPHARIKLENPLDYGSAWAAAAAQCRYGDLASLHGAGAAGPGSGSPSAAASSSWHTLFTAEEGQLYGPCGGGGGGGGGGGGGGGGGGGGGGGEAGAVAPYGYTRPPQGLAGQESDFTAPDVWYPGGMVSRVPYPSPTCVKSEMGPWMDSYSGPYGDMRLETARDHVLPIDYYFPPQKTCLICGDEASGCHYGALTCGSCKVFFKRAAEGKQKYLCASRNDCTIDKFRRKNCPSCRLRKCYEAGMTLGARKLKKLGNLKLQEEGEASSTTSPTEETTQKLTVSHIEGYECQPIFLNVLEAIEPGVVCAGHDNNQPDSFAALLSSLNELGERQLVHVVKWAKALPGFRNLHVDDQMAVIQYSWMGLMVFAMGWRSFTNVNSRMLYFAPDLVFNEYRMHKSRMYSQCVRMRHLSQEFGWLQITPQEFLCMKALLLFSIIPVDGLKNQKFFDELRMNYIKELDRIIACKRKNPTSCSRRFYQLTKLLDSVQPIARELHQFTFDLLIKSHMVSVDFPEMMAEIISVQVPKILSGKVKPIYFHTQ
Test: Functional response test: hAR transactivation (luciferase reporter) in HALP2 cells
Assay type: cell-based
Settings: for EC50: agonism, HALP2 cells (HeLa, hAR + ARE-luciferase), 20 hours at 37° C.
Outline: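 HALP2 cells are HeLa cells stably transfected with CMV-driven hAR and a probasin ARE-luciferase reporter. They were seeded 24 h ahead, then exposed to compounds for 20 hours at 37° C in phenol red-free DMEM with 5% desteroided serum. Luciferase luminescence was measured after lysis; for antagonist mode, compounds were tested against increasing DHT concentrations.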

[1] = antagonism, concentration which increases the EC50 of the DHT by a factor of 2, Schild regression, HALP2 cells

For Cc1cc(O)ccc1C1(C)C(=O)N(c2ccc(C#N)c(C(F)(F)F)c2)C(=O)N1C (centres unmarked) [Example 180, 4-[3,4-dimethyl-2,5-dioxo-4-(4-hydroxy-2-methylphenyl)imidazolidin-1-yl]-2-trifluoromethylbenzonitrile], the “KSchild (nM) potency” value was 8 nM.
With C=CCN1C(=O)N(c2ccc(Cl)c(Cl)c2)C(=O)C1(C)c1ccc(O)cc1 (centres unmarked) [Example 20, 1-(3,4-dichlorophenyl)-4-(4-hydroxyphenyl)-4-methyl-3-(2-propenyl)imidazolidine-2,5-dione] the EC50 was 4 nM and the “KSchild (nM) potency” value [1] was 3 nM.
With C#CCN1C(=O)N(c2ccc(Cl)c(C(F)(F)F)c2)C(=O)C1c1ccc(O)cc1 (centres unmarked) [Example 68] the “KSchild (nM) potency” value was 24.49 nM.
For C#CCN1C(=O)N(c2ccc([N+](=O)[O-])cc2)C(=O)C1c1ccc(O)cc1 (centres unmarked) [Example 73], the “KSchild (nM) potency” value was 13.77 nM.
In the case of CSCN1C(=O)N(c2ccc(C#N)c(C(F)(F)F)c2)C(=O)C1(C)c1ccc(O)cc1 (centres unmarked) [Example 222.2], the “KSchild (nM) potency” value is reported as 15 nM.
With N#CCN1C(=O)N(c2ccc(F)c(C(F)(F)F)c2)C(=O)C1c1ccc(O)cc1 (centres unmarked) [Example 94] the EC50 was 300 nM and the “KSchild (nM) potency” value [1] was 300 nM.
CN1C(=S)N(c2ccc(C#N)c(C(F)(F)F)c2)C(=O)C1(C)c1ccc(O)cc1 (centres unmarked) [Example 44, 4-[3,4-dimethyl-4-(4-hydroxyphenyl)-5-oxo-2-thioxoimidazolidin-1-yl]-2-trifluoromethylbenzonitrile] was tested, and the “KSchild (nM) potency” value was 4 nM.
O=C1C(c2ccc(O)cc2)N(Cc2ccsc2)C(=O)N1c1ccc(F)c(Cl)c1 (centres unmarked) [Example 51] was tested, and the EC50 was 15 nM and the “KSchild (nM) potency” value [1] was 15 nM.
With CCCN1C(=O)N(c2ccc(Cl)c(C(F)(F)F)c2)C(=O)C1c1ccc(O)cc1 (centres unmarked) [Example 57] the “KSchild (nM) potency” value was 34.64 nM.
In the case of CCCC1(c2ccc(O)cc2)C(=O)N(c2ccc(C#N)c(C(F)(F)F)c2)C(=O)N1C (centres unmarked) [Example 182.1, 4-[2,5-dioxo-4-(4-hydroxyphenyl)-3-methyl-4-propylimidazolidin-1-yl]-2-trifluoromethylbenzonitrile], the “KSchild (nM) potency” value is reported as 15 nM.
COc1ccc(C2(CF)C(=O)N(c3ccc(Cl)c(Cl)c3)C(=O)N2C)cc1 (centres unmarked) [Example 169, 1-(3,4-dichlorophenyl)-4-fluoromethyl-4-(4-methoxyphenyl)-3-methylimidazolidine-2,5-dione] was tested, and the EC50 was 10 nM and the “KSchild (nM) potency” value [1] was 10 nM.
With N#CCCN1C(=O)N(c2ccc(F)c(C(F)(F)F)c2)C(=O)C1c1ccc(O)cc1 (centres unmarked) [Example 126] the EC50 was 212 nM and the “KSchild (nM) potency” value [1] was 212.13 nM.
For C#CCN1C(=O)N(c2ccc(Cl)c(Cl)c2)C(=O)C1c1ccc(O)cc1 (centres unmarked) [Example 66], the EC50 was 24.5 nM and the “KSchild (nM) potency” value [1] was 21.21 nM.
C#CCN1C(=O)N(c2ccc(Cl)c(Cl)c2)C(=O)C1(C)c1ccc(O)cc1 (centres unmarked) [Example 21, 1-(3,4-dichlorophenyl)-4-(4-hydroxyphenyl)-4-methyl-3-(2-propynyl)imidazolidine-2,5-dione] was tested, and the “KSchild (nM) potency” value was 3 nM.
In the case of CN1C(=O)N(c2ccc(C(F)(F)F)cc2Cl)C(=O)C1(C)c1ccc(O)cc1 (centres unmarked) [Example 29, 1-(2-chloro-4-trifluoromethylphenyl)-3,4-dimethyl-4-(4-hydroxyphenyl)imidazolidine-2,5-dione], the EC50 is reported as 60 nM and the “KSchild (nM) potency” value [1] is reported as 60 nM.
Cc1cc(Cl)ccc1N1C(=O)N(C)C(C)(c2ccc(O)cc2)C1=O (centres unmarked) [Example 28, 1-(4-chloro-2-methylphenyl)-3,4-dimethyl-4-(4-hydroxyphenyl)imidazolidine-2,5-dione] was tested, and the EC50 was 24.5 nM and the “KSchild (nM) potency” value [1] was 24.49 nM.
COC(=O)CN1C(=O)N(c2ccc(C#N)c(C(F)(F)F)c2)C(=O)C1(C)c1ccc(O)cc1 (centres unmarked) [Example 227, 4-[2,5-dioxo-4-(4-hydroxyphenyl)-3-[(methoxycarbonyl)methyl]-4-methylimidazolidin-1-yl]-2-trifluoromethylbenzonitrile] was tested, and the “KSchild (nM) potency” value was 3.46 nM.
For N#CCN1C(=O)N(c2ccc(F)c(F)c2)C(=O)C1c1ccc(O)cc1 (centres unmarked) [Example 92], the EC50 was 1500 nM and the “KSchild (nM) potency” value [1] was 1500 nM.
For CC1(c2ccc(O)cc2)C(=O)N(c2ccc(C#N)c(C(F)(F)F)c2)C(=O)N1CCCCO (centres unmarked) [Example 24, 4-[2,5-dioxo-3-(4-hydroxybutyl)-4-(4-hydroxyphenyl)-4-methylimidazolidin-1-yl]-2-trifluoromethylbenzonitrile], the “KSchild (nM) potency” value was 15 nM.
In the case of CN(C)CCN1C(=O)N(c2ccc(F)c(Cl)c2)C(=O)C1c1ccc(O)cc1 (centres unmarked) [Example 119], the EC50 is reported as 283 nM and the “KSchild (nM) potency” value [1] is reported as 282.84 nM.
CCC1(c2cc(F)c(O)c(F)c2)C(=O)N(c2ccc(C#N)c(C(F)(F)F)c2)C(=O)N1C (centres unmarked) [Example 174, 4-[4-(3,5-difluoro-4-hydroxyphenyl)-2,5-dioxo-4-ethyl-3-methylimidazolidin-1-yl]-2-trifluoromethylbenzonitrile] was tested, and the “KSchild (nM) potency” value was 6.93 nM.
For O=C1C(c2ccc(O)cc2)N(CCO)C(=O)N1c1ccc([N+](=O)[O-])c(C(F)(F)F)c1 (centres unmarked) [Example 138], the “KSchild (nM) potency” value was 600 nM.
N#CCCN1C(=O)N(c2ccc(Cl)c(Cl)c2)C(=O)C1c1ccc(O)cc1 (centres unmarked) [Example 123] was tested, and the EC50 was 42.4 nM and the “KSchild (nM) potency” value [1] was 30 nM.
CCOCCCN1C(=O)N(c2ccc([N+](=O)[O-])c(C(F)(F)F)c2)C(=O)C1c1ccc(O)cc1 (centres unmarked) [Example 83] was tested, and the “KSchild (nM) potency” value was 565.69 nM.
In the case of CC1(c2ccc(O)cc2)C(=O)N(c2ccc(Cl)c(Cl)c2)C(=O)N1CCO (centres unmarked) [Example 146], the EC50 is reported as 30 nM and the “KSchild (nM) potency” value [1] is reported as 30 nM.
In the case of O=C1C(c2ccc(O)cc2)N(CCCCO)C(=O)N1c1ccc(F)c(F)c1 (centres unmarked) [Example 133], the EC50 is reported as 600 nM and the “KSchild (nM) potency” value [1] is reported as 600 nM.
For CN1C(=O)N(c2ccc(Cl)c3ccccc23)C(=O)C1(C)c1ccc(O)cc1 (centres unmarked) [Example 32, 1-(4-chloronaphthyl)-3,4-dimethyl-4-(4-hydroxyphenyl)imidazolidine-2,5-dione], the EC50 was 300 nM and the “KSchild (nM) potency” value [1] was 300 nM.
In the case of CC1(c2ccc(O)cc2)C(=O)N(c2ccc(Cl)c(Cl)c2)C(=O)N1CCC#N (centres unmarked) [Example 145], the EC50 is reported as 60 nM and the “KSchild (nM) potency” value [1] is reported as 60 nM.
With CC1(c2ccc(O)cc2)C(=O)N(c2ccc(C#N)c(C(F)(F)F)c2)C(=O)N1CC#N (centres unmarked) [Example 237, 4-[3-(cyanomethyl)-2,5-dioxo-4-(4-hydroxyphenyl)-4-methylimidazolidin-1-yl]-2-trifluoromethylbenzonitrile] the “KSchild (nM) potency” value was 8 nM.
With CN1C(=O)N(c2ccc(F)c(Cl)c2)C(=O)C1c1ccc(O)cc1 (centres unmarked) [Example 49] the EC50 was 69.3 nM and the “KSchild (nM) potency” value [1] was 42.43 nM.
For O=C1C(c2ccc(O)cc2)N(Cc2ccc3c(c2)OCO3)C(=O)N1c1ccc(F)c(F)c1 (centres unmarked) [Example 100], the EC50 was 77.5 nM and the “KSchild (nM) potency” value [1] was 77.46 nM.
For CC12C(=O)N(c3ccc(C#N)c(C(F)(F)F)c3)C(=O)N1Cc1cc(O)ccc12 (centres unmarked) [Example 158, 4-[1,3-dioxo-7-hydroxy-9b-methyl-1,2,3,9b-tetrahydro-5H-imidazo[5,1-a]isoindol-2-yl]-2-trifluoromethylbenzonitrile], the “KSchild (nM) potency” value was 30 nM.
COc1ccc([C@]2(C)C(=O)N(c3ccc(C#N)c(C(F)(F)F)c3)C(=O)N2C)cc1 [Example 153, (R)-4-[3,4-dimethyl-2,5-dioxo-4-(4-methoxyphenyl)imidazolidin-1-yl]-2-trifluoromethylbenzonitrile] was tested, and the “KSchild (nM) potency” value was 5.66 nM.
